Laboratory results taken from patent US20170334899A1, “AMINO-SUBSTITUTED ISOTHIAZOLES” (Bayer Pharma Aktiengesellschaft, priority 2014, published 2017).

Tests used:
[1] = system: human cervical tumor cell line HeLa (ATCC CCL-2); assay: SAC-Formation - Nocodazole-Induced Assay; type: cell-based; settings: 24 h, HeLa cells, nocodazole 0.1 μg/ml together with test compound, decrease of mitotic cells (phospho-histone H3 Ser10)
Summary of the method: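 HeLa cells, plated overnight, were treated 24 h at 37 °C with nocodazole (0.1 μg/ml final) plus test compound (0.005–20 μM, 0.5% DMSO) added at the same time. After fixation, anti-phospho-histone H3 Ser10 and Hoechst staining gave the mitotic cell fraction by imaging. Values came from four-parameter Hill fits.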

[2] = system: human cervical tumor cell line HeLa (ATCC CCL-2); assay: SAC-Formation - Paclitaxel-Induced Assay; type: cell-based; settings: 24 h, HeLa cells, paclitaxel 0.05 μM, test range 0.005 μM-20 μM, read-out: IC50 [mol/l] SAC-Formation - Paclitaxel-Induced Assay
Summary of the method: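 HeLa cells incubated overnight at 37° C, then given paclitaxel (0.05 μM final) plus test compound (0.005–20 μM, 0.5% DMSO) together for 24 h at 37° C. Fixed cells stained for phospho-histone H3 Ser10 (mitotic cells) and Hoechst 33342 (cell count); imaging-derived mitotic index fitted by four-parameter Hill equation.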

| Structure (SMILES) | IC50 ([1]; Homo sapiens, HeLa) [nM] | IC50 ([2]; Homo sapiens, HeLa) [nM] | IC50 [1] [nM] | IC50 [2] [nM] |
| --- | --- | --- | --- | --- |
| Cc1nsc(Nc2cnc(C(F)(F)F)cn2)c1C(=O)Nc1ccc(F)c(C(N)=O)c1 [Example 151, N-(3-carbamoyl-4-fluorophenyl)-3-methyl-5-{[5-(trifluoromethyl)pyrazin-2-yl]amino}-1,2-thiazole-4-carboxamide] | 290 | 1300 | – | – |
| CCNS(=O)(=O)c1ccc(NC(=O)c2c(C)nsc2Nc2cnc3ccccc3n2)cc1 [Example 116, N-[4-(Ethylsulfamoyl)phenyl]-3-methyl-5-(quinoxalin-2-ylamino)-1,2-thiazole-4-carboxamide] | 810 | 1500 | – | – |
| Cc1nsc(Nc2cncc(C(F)(F)F)n2)c1C(=O)Nc1ccc(C(=O)NCCN2CCCC(F)C2)cc1 (stereo not shown) [Example 155, N-(4-{[2-(3-fluoropiperidin-1-yl)ethyl]carbamoyl}phenyl)-3-methyl-5-{[6-(trifluoromethyl)pyrazin-2-yl]amino}-1,2-thiazole-4-carboxamide] | 1700 | 20000 | – | – |
| CC(=O)N1CCC(Oc2ccc(NC(=O)c3c(C)nsc3Nc3cnc(C(F)(F)F)cn3)cn2)CC1 [Example 11, N-{6-[(1-Acetylpiperidin-4-yl)oxy]pyridin-3-yl}-3-methyl-5-{[5-(trifluoromethyl)-pyrazin-2-yl]amino}-1,2-thiazole-4-carboxamide] | 1000 | 150 | – | – |
| Cc1nsc(Nc2cnc3ccccc3n2)c1C(=O)Nc1ccc(N2CCOCC2)nc1 [Example 169, 3-methyl-N-[6-(morpholin-4-yl)pyridin-3-yl]-5-(quinoxalin-2-ylamino)-1,2-thiazole-4-carboxamide] | 2500 | 14000 | – | – |
| Cc1nsc(Nc2cnc3ccccc3n2)c1C(=O)Nc1ccc(C(=O)N2CCN(CC(F)F)CC2)cc1 [Example 157, N-(4-{[4-(2,2-difluoroethyl)piperazin-1-yl]carbonyl}phenyl)-3-methyl-5-(quinoxalin-2-ylamino)-1,2-thiazole-4-carboxamide] | 1700 | 900 | – | – |
| Cc1nsc(Nc2cnc(C(F)(F)F)cn2)c1C(=O)Nc1ccc(OCC2CCN(CCF)C2)nc1 (stereo not shown) [Example 121, N-(6-{[1-(2-fluoroethyl)pyrrolidin-3-yl]methoxy}pyridin-3-yl)-3-methyl-5-{[5-(trifluoromethyl)pyrazin-2-yl]amino}-1,2-thiazole-4-carboxamide] | 340 | 43 | – | – |
| Cc1nsc(Nc2cnc3ccccc3n2)c1C(=O)Nc1cccc(C(=O)N2CCNCC2)c1 [Example 101, 3-Methyl-N-[3-(piperazin-1-ylcarbonyl)phenyl]-5-(quinoxalin-2-ylamino)-1,2-thiazole-4-carboxamide] | 1800 | 20000 | – | – |
| Cc1nsc(Nc2cnc(C(F)(F)F)cn2)c1C(=O)Nc1ccc(O[C@@H]2CCN(CC(F)(F)F)C2)nc1 [Example 421, 3-Methyl-N-(6-{[(3R)-1-(2,2,2-trifluoroethyl)pyrrolidin-3-yl]oxy}pyridin-3-yl)-5-{[5-(trifluoromethyl)pyrazin-2-yl]amino}-1,2-thiazole-4-carboxamide] | – | – | 340 | 330 |
| Cc1nsc(Nc2cnc(C(F)(F)F)cn2)c1C(=O)Nc1ccc(OC2CCN(C(C)C)CC2)nc1 [Example 160, N-{6-[(1-isopropylpiperidin-4-yl)oxy]pyridin-3-yl}-3-methyl-5-{[5-(trifluoromethyl)pyrazin-2-yl]amino}-1,2-thiazole-4-carboxamide] | 2000 | 3600 | – | – |
| CC(=O)Nc1cc(NC(=O)c2c(C)nsc2Nc2ccc(C#N)cn2)ccc1F [Example 152, N-(3-acetamido-4-fluorophenyl)-5-[(5-cyanopyridin-2-yl)amino]-3-methyl-1,2-thiazole-4-carboxamide] | 8400 | 8800 | – | – |
| Cc1nsc(Nc2cnc3ccccc3n2)c1C(=O)Nc1cccc(C(=O)N[C@H](C(=O)O)[C@@H](C)OC(C)(C)C)c1 [Example 104, O-tert-Butyl-N-[3-({[3-methyl-5-(quinoxalin-2-ylamino)-1,2-thiazol-4-yl]-carbonyl}amino)benzoyl]threonine] | 1800 | 3200 | – | – |
| COC(=O)CNC(=O)c1cccc(NC(=O)c2c(C)nsc2Nc2cnc3ccccc3n2)c1 [Example 100, Methyl N-[3-({[3-methyl-5-(quinoxalin-2-ylamino)-1,2-thiazol-4-yl]carbonyl}amino)-benzoyl]glycinate] | 1500 | 20000 | – | – |
| Cc1nsc(Nc2cnc3ccccc3n2)c1C(=O)Nc1cccc(C(=O)N[C@H](C(=O)O)[C@@H](C)O)c1 [Example 105, N-[3-({[3-methyl-5-(quinoxalin-2-ylamino)-1,2-thiazol-4-yl]carbonyl}amino)-benzoyl]threonine] | 20000 | 20000 | – | – |

Results, then the molecule that gave them:

| IC50 ([1]; Homo sapiens, HeLa) [nM] | IC50 ([2]; Homo sapiens, HeLa) [nM] | IC50 [1] [nM] | IC50 [2] [nM] | Structure (SMILES) |
| --- | --- | --- | --- | --- |
| 3.8 | 7.9 | – | – | Cc1nsc(Nc2ccc(C#N)cn2)c1C(=O)Nc1ccc(C(=O)OC(C)(C)C)cc1 [Example 98, tert-Butyl 4-[({5-[(5-cyanopyridin-2-yl)amino]-3-methyl-1,2-thiazol-4-yl}carbonyl)-amino]benzoate] |
| 35 | 150 | – | – | Cc1nsc(Nc2cncc(C(F)(F)F)n2)c1C(=O)Nc1ccc(OCC2CCN(C(=O)OC(C)(C)C)C2)nc1 (stereo not shown) [Example 110, tert-Butyl 3-{[(5-{[(3-methyl-5-{[6-(trifluoromethyl)pyrazin-2-yl]amino}-1,2-thiazol-4-yl)carbonyl]amino}pyridin-2-yl)oxy]methyl}pyrrolidine-1-carboxylate] |
| 24 | 20000 | – | – | Cc1nsc(Nc2cnc(C(F)(F)F)cn2)c1C(=O)Nc1ccc(C(=O)O)cc1 [Example 97, 4-{[(3-Methyl-5-{[5-(trifluoromethyl)pyrazin-2-yl]amino}-1,2-thiazol-4-yl)carbony]-amino}benzoic acid] |
| 220 | 230 | – | – | Cc1nsc(Nc2cncc(C(F)(F)F)n2)c1C(=O)Nc1ccc(OC2CCN(C(=O)OC(C)(C)C)CC2)nc1 [Example 12, tert-Butyl 4-[(5-{[(3-methyl-5-{[6-(trifluoromethyl)pyrazin-2-yl]amino}-1,2-thiazol-4-yl)carbonyl]amino}pyridin-2-yl)oxy]piperidine-1-carboxylate] |
| 240 | 590 | – | – | Cc1nsc(Nc2cnc(C(F)(F)F)cn2)c1C(=O)Nc1ccc(C(=O)NC2CCN(CC(F)(F)F)CC2)cc1 [Example 165, 3-methyl-N-(4-{[1-(2,2,2-trifluoroethyl)piperidin-4-yl]carbamoyl}phenyl)-5-{[5-(trifluoromethyl)pyrazin-2-yl]amino}-1,2-thiazole-4-carboxamide] |
| 110 | 130 | – | – | CNS(=O)(=O)c1ccc(NC(=O)c2c(C)nsc2Nc2cnc3ccccc3n2)cc1 [Example 111, 3-Methyl-N-[4-(methylsulfannoyl)phenyl]-5-(quinoxalin-2-ylamino)-1,2-thiazole-4-carboxamide] |
| 32 | 84 | – | – | Cc1nsc(Nc2cnc(C(F)(F)F)cn2)c1C(=O)Nc1ccc(OC[C@@H]2CCN(CCC(F)(F)F)C2)nc1 [Example 129, 3-Methyl-5-{[5-(trifluoromethyl)pyrazin-2-yl]amino}-N-(6-{[(3R)-1-(3,3,3-trifluoropropyl)pyrrolidin-3-yl]methoxy}pyridin-3-yl)-1,2-thiazole-4-carboxamide] |
| 34 | 32 | – | – | Cc1nsc(Nc2cnc(C(F)(F)F)cn2)c1C(=O)Nc1ccc(O[C@@H]2CCN(CC(F)F)C[C@@H]2F)nc1 [Example 137, N-(6-{[(3S,4R)-1-(2,2-difluoroethyl)-3-fluoropiperidin-4-yl]oxy}pyridin-3-yl)-3-methyl-5-{[5-(trifluoromethyl)pyrazin-2-yl]amino}-1,2-thiazole-4-carboxamide] |
| 210 | 310 | – | – | CCCCN1CC[C@H](Oc2ccc(NC(=O)c3c(C)nsc3Nc3cnc(C(F)(F)F)cn3)cn2)[C@H](F)C1 [Example 148, N-(6-{[(3R,4S)-1-butyl-3-fluoropiperidin-4-yl]oxy}pyridin-3-yl)-3-methyl-5-{[5-(trifluoromethyl)pyrazin-2-yl]amino}-1,2-thiazole-4-carboxamide] |
| 110 | 170 | – | – | Cc1nsc(Nc2cnc(C(F)(F)F)cn2)c1C(=O)Nc1ccc(O[C@@H]2CCN(CC(F)(F)F)C[C@@H]2F)nc1 [Example 138, N-(6-{[(3S,4R)-3-fluoro-1-(2,2,2-trifluoroethyl)piperidin-4-yl]oxy}pyridin-3-yl)-3-methyl-5-{[5-(trifluoromethyl)pyrazin-2-yl]amino}-1,2-thiazole-4-carboxamide] |
| 5.9 | 30 | – | – | CCCN1CC[C@H](Oc2ccc(NC(=O)c3c(C)nsc3Nc3cnc(C(F)(F)F)cn3)cn2)[C@H](F)C1 [Example 147, N-(6-{[(3R,4S)-3-fluoro-1-propylpiperidin-4-yl]oxy}pyridin-3-yl)-3-methyl-5-{[5-(trifluoromethyl)pyrazin-2-yl]amino}-1,2-thiazole-4-carboxamide] |
| 15 | 70 | – | – | Cc1nsc(Nc2cnc(C(F)(F)F)cn2)c1C(=O)Nc1ccc(OC[C@@H]2CCN(CC(F)(F)F)C2)nc1 [Example 128, 3-Methyl-N-(6-{[(3R)-1-(2,2,2-trifluoroethyl)pyrrolidin-3-yl]methoxy}pyridin-3-yl)-5-{[5-(trifluoromethyl)pyrazin-2-yl]amino}-1,2-thiazole-4-carboxamide] |
